In US12286442B2, “Methods and materials for increasing transcription factor eb polypeptide levels” (University of Pittsburgh—Of the Commonwealth System of …, priority 2019, dated 2025):

Assays:
[1] = test system: TFEB; test: High content screen measuring TFEB nuclear accumulation (TFEB nuclear/cytosol ratio) in BEAS-2B cells stably expressing TFEB-EGFP; assay type: cell-based, human; conditions: 18 hours incubation
Procedure, shortened: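 Readout: lowest compound concentration giving a 25% rise in nuclear/cytosol TFEB-GFP ratio, from DAPI-masked nuclear and mask-expanded cytosolic signals. Cells (BEAS-2B, TFEB-EGFP stable, ~2300–2500/well) rested 8 hours, then treated 18 hours with compound serial dilutions in 2% FBS medium before PFA fixation and DAPI staining.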

[2] = test system: BEAS-2B cells; test: Toxicity: compound concentration needed to induce greater than 50 percent of cell loss; assay type: cell-based, human; conditions: 18 hours incubation
Procedure, shortened: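 Reported value is the concentration giving greater than 50 percent cell loss, grouped into bins (≥25 μM; between 1 and 25 μM; ≤1 μM as "+++"). Measured by high-content imaging of DAPI-stained BEAS-2B TFEB-EGFP cells fixed after 18 h compound exposure.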

| SMILES | efficacy (minimal compound concentration needed to increase TFEB nuclear/cytosol ratio by 25%) [1] | toxicity (compound concentration needed to induce greater than 50 percent of cell loss) [2] |
| --- | --- | --- |
| Cc1nc2ccc(Nc3nc(-c4ccncc4)nc4ccccc34)cc2o1 [Compound 34] | +++ (“+++” equals ≤1 μM) | + (cell loss of greater than 50 percent at a concentration that equals or is greater than 25 μM was represented as) |
| c1ccc2c(NC3CCN(C4CC4)CC3)nc(-c3ccncc3)nc2c1 [Compound 175] | + (“+” equals >25 μM) | + (cell loss of greater than 50 percent at a concentration that equals or is greater than 25 μM was represented as) |
| COc1ccc(NC(=O)Cn2c(=O)n(-c3ccc(C)cc3)c(=O)c3ccccc32)cc1 [Compound 220] | + (“+” equals >25 μM) | + (cell loss of greater than 50 percent at a concentration that equals or is greater than 25 μM was represented as) |
| Cc1nc2ccc(Nc3nc(-c4ccncc4)nc4ccccc34)cc2s1 [Compound 192] | +++ (“+++” equals ≤1 μM) | + (cell loss of greater than 50 percent at a concentration that equals or is greater than 25 μM was represented as) |
| Oc1ccc(-c2nc(Nc3ccc4[nH]ncc4c3)c3ccccc3n2)cc1 [Compound 64] | ++ (“++” equals between ≤25 μM and >1 μM) | ++ (cell loss of greater than 50 percent at a concentration less than 25 μM and greater than 1 μM was represented as) |
| Oc1ccc(-c2nc(Nc3cccc(F)c3)c3ccccc3n2)cc1 [Compound 65] | + (“+” equals >25 μM) | + (cell loss of greater than 50 percent at a concentration that equals or is greater than 25 μM was represented as) |
| Fc1cccc(Nc2nc(-c3ccncc3)nc3ccncc23)c1 [Compound 194] | +++ (“+++” equals ≤1 μM) | + (cell loss of greater than 50 percent at a concentration that equals or is greater than 25 μM was represented as) |
| Fc1cc(Nc2nc(N3CCOCC3)nc3ncccc23)cc2cc[nH]c12 [Compound 384] | +++ (“+++” equals ≤1 μM) | + (cell loss of greater than 50 percent at a concentration that equals or is greater than 25 μM was represented as) |
| c1cnc2nc(-c3ccncc3)nc(Nc3ccc4[nH]ncc4c3)c2c1 [Compound 80] | ++ (“++” equals between ≤25 μM and >1 μM) | + (cell loss of greater than 50 percent at a concentration that equals or is greater than 25 μM was represented as) |
| c1ccc2c(Nc3ccc4ncsc4c3)nc(-c3cncs3)nc2c1 [Compound 107] | + (“+” equals >25 μM) | + (cell loss of greater than 50 percent at a concentration that equals or is greater than 25 μM was represented as) |
| c1ccc2c(Nc3cccc4[nH]ncc34)nc(-c3ccncc3)nc2c1 [Compound 99] | +++ (“+++” equals ≤1 μM) | + (cell loss of greater than 50 percent at a concentration that equals or is greater than 25 μM was represented as) |
| c1ccc2c(Nc3ccc4[nH]ncc4c3)nc(-c3cncs3)nc2c1 [Compound 77] | +++ (“+++” equals ≤1 μM) | + (cell loss of greater than 50 percent at a concentration that equals or is greater than 25 μM was represented as) |
| Fc1ccc(Nc2nc(-c3cccnc3)nc3ccccc23)cc1F [Compound 196] | + (“+” equals >25 μM) | + (cell loss of greater than 50 percent at a concentration that equals or is greater than 25 μM was represented as) |
| c1ccc2c(Nc3ccc4[nH]ncc4c3)nc(-c3cc[nH]c3)nc2c1 [Compound 89] | ++ (“++” equals between ≤25 μM and >1 μM) | ++ (cell loss of greater than 50 percent at a concentration less than 25 μM and greater than 1 μM was represented as) |
| Cc1c(Nc2nc(-c3ccncc3)nc3ccncc23)ccc2[nH]ccc12 [Compound 126] | ++ (“++” equals between ≤25 μM and >1 μM) | + (cell loss of greater than 50 percent at a concentration that equals or is greater than 25 μM was represented as) |
| Cc1nc2cc(Nc3nc(-c4ccncc4)nc4ccccc34)ccc2o1 [Compound 37] | ++ (“++” equals between ≤25 μM and >1 μM) | + (cell loss of greater than 50 percent at a concentration that equals or is greater than 25 μM was represented as) |
| Cc1cc2c(F)c(Nc3nc(-c4ccncc4)nc4ccccc34)ccc2[nH]1 [Compound 30] | +++ (“+++” equals ≤1 μM) | +++ (cell loss of greater than 50 percent at a concentration that equals or is less than 1 μM was represented as “+++.”) |
| Cc1cccc(Nc2nc(-c3ccncc3C)nc3ccccc23)c1 [Compound 54] | + (“+” equals >25 μM) | + (cell loss of greater than 50 percent at a concentration that equals or is greater than 25 μM was represented as) |
| Fc1ccc(Nc2nc(-c3ccncc3)nc3ccccc23)cc1F [Compound 183] | ++ (“++” equals between ≤25 μM and >1 μM) | + (cell loss of greater than 50 percent at a concentration that equals or is greater than 25 μM was represented as) |
| O=C(Cn1c(=O)n(-c2ccccc2)c(=O)c2ccccc21)N1CCOCC1 [Compound 230] | + (“+” equals >25 μM) | + (cell loss of greater than 50 percent at a concentration that equals or is greater than 25 μM was represented as) |
| CC(C)(C)c1cc2cc(Nc3nc(-c4ccncc4)nc4ncccc34)ccc2[nH]1 [Compound 134] | +++ (“+++” equals ≤1 μM) | + (cell loss of greater than 50 percent at a concentration that equals or is greater than 25 μM was represented as) |
| Fc1cc(F)cc(Nc2nc(-c3ccncc3)nc3ccccc23)c1 [Compound 182] | + (“+” equals >25 μM) | + (cell loss of greater than 50 percent at a concentration that equals or is greater than 25 μM was represented as) |
| O=[N+]([O-])c1cccc(-c2nc(Nc3cccc(F)c3)c3ccccc3n2)c1 [Compound 161] | + (“+” equals >25 μM) | + (cell loss of greater than 50 percent at a concentration that equals or is greater than 25 μM was represented as) |
| c1cnc2ccc(Nc3nc(-c4cncs4)nc4ccccc34)cc2c1 [Compound 106] | + (“+” equals >25 μM) | + (cell loss of greater than 50 percent at a concentration that equals or is greater than 25 μM was represented as) |
| c1ccc2c(Nc3ccc4oncc4c3)nc(-c3cncs3)nc2c1 [Compound 394] | + (“+” equals >25 μM) | + (cell loss of greater than 50 percent at a concentration that equals or is greater than 25 μM was represented as) |
| Fc1cc(Nc2nc(-c3cncs3)nc3ccccc23)cc2cc[nH]c12 [Compound 395] | +++ (“+++” equals ≤1 μM) | + (cell loss of greater than 50 percent at a concentration that equals or is greater than 25 μM was represented as) |
| COc1cccc2nc(-c3ccncc3)nc(Nc3ccc4[nH]ccc4c3)c12 [Compound 109] | +++ (“+++” equals ≤1 μM) | + (cell loss of greater than 50 percent at a concentration that equals or is greater than 25 μM was represented as) |
| Cc1cc(Nc2nc(-c3ccncc3)nc3ccccc23)ccc1N [Compound 58] | ++ (“++” equals between ≤25 μM and >1 μM) | + (cell loss of greater than 50 percent at a concentration that equals or is greater than 25 μM was represented as) |
| Cc1cc(Nc2nc(-c3ccncc3)nc3ccccc23)cc(C(F)(F)F)c1 [Compound 10] | + (“+” equals >25 μM) | + (cell loss of greater than 50 percent at a concentration that equals or is greater than 25 μM was represented as) |
| Cn1ncc2ccc(Nc3nc(-c4ccncc4)nc4ccccc34)cc21 [Compound 23] | +++ (“+++” equals ≤1 μM) | + (cell loss of greater than 50 percent at a concentration that equals or is greater than 25 μM was represented as) |
